Measurements as given in patent US20130211079A1, “SUBSTITUTED HETEROCYCLES AS THERAPEUTIC AGENTS FOR TREATING CANCER” (priority 2010, published 2013).

Tests used:
p53-hMDM2 complex = target: T1, p53-hMDM2 complex (Homo sapiens, UniProt Q00987); test: 1D AIDA-NMR antagonist-induced dissociation assay; assay type: binding; conditions: p53 (res. 1-321) + Hdm2 (res. 1-125); FIG. 3
T1 construct: complex of p53 (res. 1-321)+Hdm2 (res. 1-125)

Aqueous solubility = assay type: physicochemical; conditions: PB11 compared with PB2
Description: The present inventor rationalized, therefore, that derivatization of an inventive compound to a more hydrophilic drugable molecule, for instance via amidation of a carboxylic acid group or the amidation of an ester group could potentially improve water solubility, binding affinity and bioavailability. See below for synthetic methodology.

Hdm2 = Hdm2 (Homo sapiens, UniProt Q00987); conditions: KD; method for each compound in column 'Method of KD calculation' (bin. titr., AIDA, FP, SPR)
Sequence of Hdm2 (Q00987 1-125): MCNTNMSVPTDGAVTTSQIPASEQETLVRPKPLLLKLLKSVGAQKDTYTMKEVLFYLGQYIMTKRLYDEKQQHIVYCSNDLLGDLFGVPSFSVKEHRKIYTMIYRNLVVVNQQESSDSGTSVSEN
Description: The affinities of imidazoline compounds of the present invention towards MDM2 or MDM4 proteins was measured by 2D H^1—N^15 HSQC NMR spectroscopy.
Water suppression was carried out using the WATERGATE sequence. NMR spectra were acquired at 300 K on a Bruker DRX 600 MHz spectrometer equipped with a cryoprobe and the data was processed using the Bruker program Xwin-NMR V. 3.5.
NMR ligand binding experiments were carried out in an analogous way to those previously described. […] For instance, 500 μL of the protein sample, at a concentration of about 0.1 mM, in 10% D2O and a 20 mM stock solution of nutin-3 (purchased from Cayman Chemical, MI) in DMSO-d6 were used in all experiments. […]
For example, 500 μL of the protein sample, at a concentration of about 0.1 mM, in 10% D2O and a 20 mM stock solution of nutin-3 (purchased from Cayman Chemical, MI) in DMSO-d6 were used in all of the experiments. […] The ^1H—^15N—HSQC spectra were recorded using fast HSQC pulse sequence as described by Mori et al., J. Magn. […]
The fluorescence intensities parallel (Intparallel) and perpendicular (Intperpedicular) to the plane of excitation were measured in black 384-well NBS assay plates (Corning) at room temperature (˜20° C.). […]
All fluorescence polarization values were expressed in millipolarization units (mP). […] Plates were read at 30 min after mixing all assay components. […]

T1 sequence (Q00987 1-125, one chain of several): as the sequence (Q00987 1-125) above

SMILES	disruption of p53-hMDM2 complex (reappearance of Trp23 peak of p53) (p53-hMDM2 complex)	water solubility (Aqueous solubility)	Binding to Hdm2 (Hdm2)
CC(C)C[C@@]1(C(=O)NCCc2ccncc2)N=CN(CC2CC2)C1c1ccc(Cl)cc1 (mixture of isomers) [PB11, cis-5-(4-chlorophenyl)-1-(cyclopropylmethyl)-4-isobutyl-N-(2-(pyridin-4-yl)ethyl)-4,5-dihydro-1H-imidazole-4-carboxamide]	dissociation of the p53-hMDM2 complex	improved	
Oc1ccc2ccc(Br)cc2c1C(NCC1CC1)c1ccc(Cl)cc1 (stereo not shown) [PB13, 7-Bromo-1-[(4-chlorophenyl)(cyclopropylmethylamino)methyl]naphthalen-2-ol]			precipitation
O=C1C(c2ccc(Cl)cc2)C(c2cc3ccc(Cl)cc3[nH]2)N1c1ccc(Cl)cc1 (stereo not shown) [PB15, 4-(6-Chloro-1H-indol-2-yl)-1,3-bis-(4-chlorophenyl)azetidin-2-one]			precipitation
